26 molecules from patent US20090105349A1, “ANDROGEN MODULATORS” (WARNER-LAMBERT COMPANY LLC, priority 2004, published 2009) can be followed below.

For experiment [1], the target named is T1, hAR (human androgen receptor) (Homo sapiens, UniProt P10275).
T1 construct: made in house; host or cells: baculovirus/Sf9 insect cells (crude extract)
T1 sequence (P10275 1-920): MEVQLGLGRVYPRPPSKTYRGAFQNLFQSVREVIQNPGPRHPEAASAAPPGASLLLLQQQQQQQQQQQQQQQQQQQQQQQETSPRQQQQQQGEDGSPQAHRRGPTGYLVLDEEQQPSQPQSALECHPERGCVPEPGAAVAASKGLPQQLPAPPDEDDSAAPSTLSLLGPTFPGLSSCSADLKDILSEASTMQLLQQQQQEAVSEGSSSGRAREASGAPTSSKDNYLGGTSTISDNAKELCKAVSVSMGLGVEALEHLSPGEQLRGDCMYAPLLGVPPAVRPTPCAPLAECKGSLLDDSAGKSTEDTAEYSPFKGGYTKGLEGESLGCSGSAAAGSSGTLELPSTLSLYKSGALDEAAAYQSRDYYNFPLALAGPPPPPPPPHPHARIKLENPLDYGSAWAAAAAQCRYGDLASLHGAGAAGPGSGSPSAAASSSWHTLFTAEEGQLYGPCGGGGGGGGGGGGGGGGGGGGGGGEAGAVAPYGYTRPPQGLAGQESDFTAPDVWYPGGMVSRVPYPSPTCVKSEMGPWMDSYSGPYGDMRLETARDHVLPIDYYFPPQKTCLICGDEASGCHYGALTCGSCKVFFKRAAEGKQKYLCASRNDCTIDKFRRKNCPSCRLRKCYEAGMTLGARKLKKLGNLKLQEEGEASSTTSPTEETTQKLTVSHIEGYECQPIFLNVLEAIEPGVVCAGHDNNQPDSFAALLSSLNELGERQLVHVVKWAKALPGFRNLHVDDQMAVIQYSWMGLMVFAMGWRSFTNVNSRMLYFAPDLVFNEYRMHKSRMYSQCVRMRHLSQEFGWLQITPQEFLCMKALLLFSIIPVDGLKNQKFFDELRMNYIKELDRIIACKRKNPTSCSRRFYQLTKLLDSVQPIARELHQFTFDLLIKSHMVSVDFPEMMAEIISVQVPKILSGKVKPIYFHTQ
Description: Competitive hAR binding assay with 3H-DHT tracer. How it is done: The description below describes how the assay was carried out.
Competitive binding analysis was performed on baculovirus/Sf9 generated hAR extracts in the presence or absence of different concentrations of test agent and a fixed concentration of ^3H-dihydrotestosterone (3H-DHT) as tracer. […] Subsequently, the binding reactions are washed three times to completely remove excess unbound ^3H-DHT. hAR bound ^3H-DHT levels are determined in the presence of compounds (i.e. competitive binding) and compared to levels bound when no competitor is present (i.e. maximum binding). Compound binding affinity to the hAR is expressed as the concentration of compound at which one half of the maximum binding is inhibited.

Experiment [2] has as its target T2, androgen receptor in MDA-MB453-MMTV clone 54-19 cells (Homo sapiens, UniProt P10275).
T2 sequence (P10275 1-920 Q868H): T1 sequence (P10275 1-920) with Q868H
Description: AR antagonist cell assay (MMTV-luciferase reporter). Type of experiment: cell-based. Here is the method: The compounds ability to antagonize the effects of androgen on the androgen receptor were determined in a whole cell assay as described immediately below.
This cell line is a stable transfected cell line with MDA-MB453 cell background (a human breast tumor cell line expressing androgen receptor). A MMTV minimal promoter containing ARE was first cloned in front of a firefly luciferase reporter gene. Then the cascade was cloned into transfection vector pUV120puro. […] Puromycin resistant stable cell line was selected.
Plating medium: DMEM (phenol red free), 10% charcoal treated HyClone serum, 1% L-glutamine
Assay medium: DMEM (phenol red free), 1% charcoal treated HyClone serum, 1% L-glutamine, and 1% penicillin/streptomycin
Assay procedure: • 1. Cells are maintained in culture medium, splitting cells when they reach 80-90% confluence • 2. To test compounds, 10,000 cells/well are plated to opaque 96 cell culture plate in 100 ul/well plating medium, culture for overnight at 37° C. in cell culture incubator • 3. […] Add 10 ul/well freshly prepared DHT (final concentration at […]) to each well, incubate at 37° C. for 17 hr (overnight) • 5.
The results are reported as the mean of multiple tests as described below (the numbers of tests are indicated in the footnote). N.D. denotes that the compound was not tested.
On the technique in general: Reporter assays use an easily measured gene product as a stand-in for the process of interest.

[3] abbreviates: MDA-MB453-MMTV clone 54-19, inhibition of DHT induced luciferase, 17 hr; mean of multiple tests; read-out: AR Cell IC50.
Where [4] appears, read: baculovirus/Sf9 hAR extract, 1 nM 3H-DHT, one hour at 4° C, mean of multiple tests, read-out: AR Binding IC50.
The mark [5] stands for this setting: read-out: AR Cell IC50; MDA-MB453-MMTV clone 54-19, inhibition of DHT induced luciferase, 17 hr; mean of multiple tests.

Structures are written as SMILES. Substitutions are numbered along the chain they refer to. Read-outs that look alike come from different tables or passages of the source. Where only a bound is given, the exact number is not on record here.

The IC50 is the concentration that gives 50% inhibition. On to `Cc1cccc(Oc2ccc(C#N)c(Cl)c2)c1` [Example 41, 2-Chloro-4-m-tolyloxy-benzonitrile], for which the IC50 was found to be 86 nM in experiment [1] and 120 nM in experiment [2] (setting [3]).
The matching figures for `COc1ccccc1Oc1ccc(C#N)c(Cl)c1` [Example 42, 2-Chloro-4-(2-methoxy-phenoxy)-benzonitrile]: 2 nM and 387 nM.
For `C=CCc1cccc(C)c1Oc1ccc(C#N)c(Cl)c1` [Example 44, 4-(2-Allyl-6-methyl-phenoxy)-2-chloro-benzonitrile], in that order: 79 nM and 282 nM.
For `Cc1ccc(Oc2ccc(C#N)c(Cl)c2)c(C)c1` [Example 45, 2-Chloro-4-(2,4-dimethyl-phenoxy)-benzonitrile], in that order: 25 nM and 721 nM.
Regarding `N#CCCc1ccc(Oc2ccc(C#N)c(Cl)c2)cc1` [Example 46, 2-Chloro-4-[4-(2-cyano-ethyl)-phenoxy]-benzonitrile], the values for the IC50 in experiment [1] (setting [4]) and in experiment [2] (setting [3]) were 304 nM and 197 nM, respectively.
On to `COc1cc(C)ccc1Oc1ccc(C#N)c(Cl)c1` [Example 47, 2-Chloro-4-(2-methoxy-4-methyl-phenoxy)-benzonitrile], for which the IC50 in experiment [1] is 4 nM; in experiment [2] (setting [3]), over 1000 nM.
`CCC(C)c1ccccc1Oc1ccc(C#N)c(Cl)c1` (stereo not shown) [Example 48, 4-(2-sec-Butyl-phenoxy)-2-chloro-benzonitrile]: the results for the IC50 in experiment [1] (setting [4]) and in experiment [2] (setting [3]) were 184 nM and over 1000 nM, respectively.
Turning to `Cc1ccc(C(C)C)c(Oc2ccc(C#N)c(Cl)c2)c1` [Example 49, 2-Chloro-4-(2-isopropyl-5-methyl-phenoxy)-benzonitrile], the IC50 in experiment [1] was determined as 79 nM; in experiment [2] (setting [3]), 784 nM.
As to `Cc1cc(C)c(Oc2ccc(C#N)c(Cl)c2)c(C)c1` [Example 50, 2-Chloro-4-(2,4,6-trimethyl-phenoxy)-benzonitrile], the half-inhibitory concentration (IC50) in experiment [1] turned out to be 22 nM; in experiment [2] (setting [3]) it was 214 nM.
The matching figures for `C=CCc1ccccc1Oc1ccc(C#N)c(Cl)c1` [Example 51, 4-(2-Allyl-phenoxy)-2-chloro-benzonitrile]: 62 nM and 252 nM.
Regarding `N#Cc1ccc(Oc2ccc(F)cc2)cc1Cl` [Example 52, 2-Chloro-4-(4-fluoro-phenoxy)-benzonitrile], the IC50 in experiment [1] (setting [4]) was 152 nM; in experiment [2] (setting [3]) it was 261 nM.
The matching figures for `Cc1ccc(C(C)C)cc1Oc1ccc(C#N)c(Cl)c1` [Example 53, 2-Chloro-4-(5-isopropyl-2-methyl-phenoxy)-benzonitrile]: 192 nM and 621 nM.
With `COc1cccc(Oc2ccc(C#N)c(Cl)c2)c1OC` [Example 54, 2-Chloro-4-(2,3-dimethoxy-phenoxy)-benzonitrile], the half-maximal inhibitory concentration (IC50) in experiment [1] (setting [4]) worked out at 157 nM; in experiment [2] (setting [5]), 26 nM.
Regarding `COc1cc(F)ccc1Oc1ccc(C#N)c(Cl)c1` [Example 56, 2-Chloro-4-(4-fluoro-2-methoxy-phenoxy)-benzonitrile], the IC50 in experiment [1] turned out to be 6 nM; in experiment [2] (setting [5]), 11 nM.
Turning to `CCOc1cc(C)ccc1Oc1ccc(C#N)c(Cl)c1` [Example 57, 2-Chloro-4-(2-ethoxy-4-methyl-phenoxy)-benzonitrile], the IC50 in experiment [1] was 7 nM; in experiment [2] (setting [3]) it was over 1000 nM.
Regarding `CSc1ccc(Oc2ccc(C#N)c(Cl)c2)c(C)c1` [Example 59, 2-Chloro-4-(2-methyl-4-methylsulfanyl-phenoxy)-benzonitrile], the IC50 in experiment [1] (setting [4]) was 268 nM; in experiment [2] (setting [3]) it was 175 nM.
For `Cc1cc(F)ccc1Oc1ccc(C#N)c(Cl)c1` [Example 60, 2-Chloro-4-(4-fluoro-2-methyl-phenoxy)-benzonitrile], the half-inhibitory concentration (IC50) turned out to be 48 nM in experiment [1] and 72 nM in experiment [2] (setting [5]).
For `CCCC(=O)Nc1ccc(Oc2ccc(C#N)c(Cl)c2)cc1` [Example 61, N-[4-(3-Chloro-4-cyano-phenoxy)-phenyl]-butyramide], the IC50 worked out at 163 nM in experiment [1] (setting [4]) and 535 nM in experiment [2] (setting [3]).
As for `CC(C)Oc1ccccc1Oc1ccc(C#N)c(Cl)c1` [Example 63, 2-Chloro-4-(2-isopropoxy-phenoxy)-benzonitrile], the IC50 in experiment [1] came to 70 nM; in experiment [2] (setting [5]) it was 4 nM.
For `N#Cc1ccc(Oc2ccccc2C(F)(F)F)cc1Cl` [Example 64, 4-(2-Trifluoromethyl-phenoxy)-2-chloro-benzonitrile], the 50% inhibitory concentration (IC50) in experiment [1] was determined as 34 nM; in experiment [2] (setting [3]) it was 842 nM.
On to `N#Cc1ccc(Oc2ccccc2C#N)cc1Cl` [Example 65, 2-Chloro-(2-cyano-phenoxy)-benzonitrile], for which the IC50 in experiment [1] was determined as 14 nM; in experiment [2] (setting [5]), 0.32 nM.
Regarding `N#Cc1ccc(Oc2ccccc2)cc1Cl` [Example 66, 2-Chloro-4-phenoxy-benzonitrile], the IC50 in experiment [1] (setting [4]) was 147 nM; in experiment [2] (setting [3]), 333 nM.
For `N#Cc1ccc(Oc2ccc(C#N)c(Cl)c2)cc1` [Example 67, 2-Chloro-(4-cyano-phenoxy)-benzonitrile], in that order: 230 nM and 340 nM.
For the molecule `Cc1ccc(C)c(Oc2ccc(C#N)c(Cl)c2)c1` [Example 68, 2-Chloro-4-(2,5-dimethyl-phenoxy)-benzonitrile], the values for the IC50 in experiment [1] and in experiment [2] (setting [3]) were 69 nM and over 1000 nM, respectively.
With `N#Cc1ccc(Oc2ccccc2-c2ccccc2)cc1Cl` [Example 69, 4-(Biphenyl-2-yloxy)-2-chloro-benzonitrile], the figures for the IC50 in experiment [1] (setting [4]) and in experiment [2] (setting [3]) were 159 nM and over 1000 nM, respectively.
Regarding `N#Cc1ccc(Oc2ccc(O)cc2)cc1C(F)(F)F` [Example 80, 4-(4-Hydroxy-phenoxy)-2-trifluoromethyl-benzonitrile], the results for the IC50 in experiment [1] (setting [4]) and in experiment [2] (setting [5]) were 207 nM and 62 nM, respectively.
